A short description of the data set: Solid state form and hygroscopicity, as stated in the description. In kind it is physicochemical. The note with it: hydrochloride salts.
Consider `CCOC(=O)C[C@H](NC(=O)CN1C(=O)N[C@](C)(c2ccc(C(=N)N)cc2)C1=O)c1ccccc1` [ethyl (S)-3-(2-((R)-4-(4-(amino-imino-methyl)phenyl)-4-methyl-2,5-dioxoimidazolidin-1-yl)-acetylamino)-3-phenylpropionate], for which the solid state form result was “amorphous and cannot be obtained in the crystalline state”.

For the compound `CCOC(=O)C[C@H](NC(=O)CN1C(=O)N[C@@](C)(c2ccc(C(=N)N)cc2)C1=O)c1ccccc1` [ethyl (S)-3-(2-((S)-4-(4-(amino-imino-methyl)phenyl)-4-methyl-2,5-dioxoimidazolidin-1-yl)acetylamino)-3-phenylpropionate], the solid state form entry is “amorphous and cannot be obtained in the crystalline state”.

Regarding `CCOC(=O)C[C@@H](NC(=O)CN1C(=O)N[C@](C)(c2ccc(C(=N)N)cc2)C1=O)c1ccccc1` [ethyl (R)-3-(2-((R)-4-(4-(amino-imino-methyl)phenyl)-4-methyl-2,5-dioxo-imidazolidin-1-yl)acetylamino)-3-phenylpropionate], the solid state form result was “amorphous and cannot be obtained in the crystalline state”. Regarding `CCOC(=O)C[C@@H](NC(=O)CN1C(=O)N[C@@](C)(c2ccc(C(=N)N)cc2)C1=O)c1ccccc1` [ethyl (R)-3-(2-((S)-4-(4-(amino-imino-methyl)phenyl)-4-methyl-2,5-dioxoimidazolidin-1-yl)acetylamino)-3-phenylpropionate], the solid state form entry was “amorphous and cannot be obtained in the crystalline state”.

(Values after patent publication US6294562A, “Salts of ethyl 3-(2-(4-(4-amino-imino-methyl)phenyl)-4-methyl-2,5-dioxo-imidazolidin-1-yl )acetylamino)-3-phenylpropionate” (Hoechst Aktiengesellschaft, priority 1996, dated 2001).)
